Legend:
human μ opiate receptor = molecular target: T1, human μ opiate receptor (Homo sapiens, UniProt P35372); test: Affinity for the human μ opiate receptor ([3H]-naloxone displacement, CHO-K1 receptor membrane preparation, SPA); type: binding; details: test concentration of 1 μM; for inhibition at 1 µM: read-out: μ (binding on the μ opioid receptor, % inhibition)
T1 construct: purchased PerkinElmer Life Sciences, Zaventem, Belgium RB-HOM; host or cells: CHO-K1 cells (membrane preparation)
In short: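 Test compounds, 1 nmol/l [3H]-naloxone and CHO-K1 membranes bearing the human μ opiate receptor are combined with WGA-SPA beads. After 90 minutes at room temperature, plates are centrifuged and radioactivity counted. Specific-binding inhibition at 1 μmol/l is given in percent.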

[1] = molecular target: T2, serotonin (5-HT) reuptake (Rattus norvegicus, UniProt P31652); test: Inhibition of serotonin (5HT) reuptake in synaptosomes from rat brain; type: biochemical; details: test concentration of 10 μM; for inhibition at 10 µM: read-out: 5-HT (inhibition of reuptake of serotonin, % inhibition)
T2 construct: synaptosomes are freshly isolated from areas of the rat brain; from tissue; host or cells: rat brain synaptosomes (P2 fraction)
T2 sequence (P31652 whole entry): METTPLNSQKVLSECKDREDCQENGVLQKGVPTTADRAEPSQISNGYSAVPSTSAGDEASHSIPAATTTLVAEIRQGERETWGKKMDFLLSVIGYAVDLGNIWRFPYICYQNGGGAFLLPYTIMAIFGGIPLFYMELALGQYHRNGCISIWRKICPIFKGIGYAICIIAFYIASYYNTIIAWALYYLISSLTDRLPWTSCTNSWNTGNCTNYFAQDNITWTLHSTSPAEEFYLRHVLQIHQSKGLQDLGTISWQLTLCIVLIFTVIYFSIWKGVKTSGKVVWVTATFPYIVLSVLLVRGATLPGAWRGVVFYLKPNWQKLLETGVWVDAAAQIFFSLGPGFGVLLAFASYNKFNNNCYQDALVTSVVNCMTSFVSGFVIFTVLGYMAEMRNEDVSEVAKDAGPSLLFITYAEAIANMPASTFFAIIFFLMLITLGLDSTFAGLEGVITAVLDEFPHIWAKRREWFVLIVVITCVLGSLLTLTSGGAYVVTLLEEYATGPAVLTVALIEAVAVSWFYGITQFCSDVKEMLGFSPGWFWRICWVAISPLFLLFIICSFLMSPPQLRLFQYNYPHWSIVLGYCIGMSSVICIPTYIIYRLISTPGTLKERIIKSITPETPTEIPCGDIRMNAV
In short: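 Compounds screened at 10 μM and reported as percent inhibition of serotonin uptake. Uptake measured in a freshly prepared P2 synaptosomal fraction from rat brain.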

T1 sequence (P35372 whole entry): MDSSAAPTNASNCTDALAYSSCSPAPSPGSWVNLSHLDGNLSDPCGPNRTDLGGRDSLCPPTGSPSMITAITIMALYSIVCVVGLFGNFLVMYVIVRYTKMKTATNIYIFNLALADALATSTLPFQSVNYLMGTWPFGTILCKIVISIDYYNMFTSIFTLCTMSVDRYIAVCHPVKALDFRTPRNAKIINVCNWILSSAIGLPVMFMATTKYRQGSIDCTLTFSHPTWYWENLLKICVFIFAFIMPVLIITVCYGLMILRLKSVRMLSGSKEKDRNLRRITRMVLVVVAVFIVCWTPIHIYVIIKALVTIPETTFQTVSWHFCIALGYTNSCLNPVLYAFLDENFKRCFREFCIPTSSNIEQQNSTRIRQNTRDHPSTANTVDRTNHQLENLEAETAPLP

CN(C)C(c1cccs1)C1CCC(CNC(=O)COCCN(C)S(=O)(=O)c2ccc(Cl)cc2Cl)CC1 (stereo not shown) [Example 8, 2-(2-(2,4-dichloro-N-methylphenylsulfonamido)ethoxy)-N-((4-((dimethylamino)(thiophen-2-yl)methyl)cyclohexyl)methyl)acetamide]
inhibition at 1 µM (human μ opiate receptor): 98%
inhibition at 10 µM [1]: 81%

COc1ccc(S(=O)(=O)N2CCCCC2COCC(=O)NCCC2CCC(C(c3cccs3)N(C)C)CC2)cc1OC (stereo not shown) [Example 120, 2-((1-(3,4-dimethoxyphenylsulfonyl)piperidin-2-yl)methoxy)-N-(2-(4-((dimethylamino)(thiophen-2-yl)methyl)cyclohexyl)ethyl)acetamide]
inhibition at 1 µM (human μ opiate receptor): 92%
inhibition at 10 µM [1]: 91%

COc1cc(C)c(S(=O)(=O)N(CCOCC(=O)NCCC2CCC(C(c3ccc(Cl)cc3)N(C)C)CC2)Cc2ccccc2)c(C)c1 (stereo not shown) [Example 569]
μ (binding on the μ opioid receptor, % inhibition) (human μ opiate receptor): 10%
5-HT (inhibition of reuptake of serotonin, % inhibition) [1]: 52%

COc1ccc(S(=O)(=O)N(C)CCOCC(=O)NC2CCC(C(c3ccc(F)cc3)N(C)C)CC2)cc1OC (stereo not shown) [Example 548]
μ (binding on the μ opioid receptor, % inhibition) (human μ opiate receptor): 26%
5-HT (inhibition of reuptake of serotonin, % inhibition) [1]: 99%

CN(C)C(c1cccs1)C1CCC(CNC(=O)COCCN(Cc2ccccc2)S(=O)(=O)c2ccccc2)CC1 (stereo not shown) [Example 102, 2-(2-(N-benzylphenylsulfonamido)ethoxy)-N-((4-((dimethylamino)(thiophen-2-yl)methyl)cyclohexyl)methyl)acetamide]
inhibition at 1 µM (human μ opiate receptor): 94%
inhibition at 10 µM [1]: 92%

CN(C)C(c1ccc(F)cc1)C1CCC(CNC(=O)COC2CCN(S(=O)(=O)c3ccccc3)CC2)CC1 (stereo not shown) [Example 568]
μ (binding on the μ opioid receptor, % inhibition) (human μ opiate receptor): 11%
5-HT (inhibition of reuptake of serotonin, % inhibition) [1]: 97%

CN(C)C(CCc1ccccc1)C1CCC(CNC(=O)COC2CCN(S(=O)(=O)c3cccc(C(F)(F)F)c3)C2)CC1 (stereo not shown) [Example 552]
μ (binding on the μ opioid receptor, % inhibition) (human μ opiate receptor): 23%
5-HT (inhibition of reuptake of serotonin, % inhibition) [1]: 90%

COc1cc(C)c(S(=O)(=O)N2CCCC(OCC(=O)NCC3CCC(C(CCc4ccccc4)N(C)C)CC3)C2)c(C)c1C (stereo not shown) [Example 551]
μ (binding on the μ opioid receptor, % inhibition) (human μ opiate receptor): 35%
5-HT (inhibition of reuptake of serotonin, % inhibition) [1]: 85%

COc1ccc(S(=O)(=O)N2CCCC2COCC(=O)NCC2CCC(C(c3cccs3)N(C)C)CC2)cc1 (stereo not shown) [Example 105, N-((4-((dimethylamino)(thiophen-2-yl)methyl)cyclohexyl)methyl)-2-((1-(4-methoxyphenylsulfonyl)pyrrolidin-2-yl)methoxy)acetamide]
inhibition at 1 µM (human μ opiate receptor): 93%
inhibition at 10 µM [1]: 95%

COc1cc(C)c(S(=O)(=O)N2CCC(CCOCC(=O)NCC3CCC(C(c4cccs4)N(C)C)CC3)CC2)c(C)c1C (stereo not shown) [Example 131, N-((4-((dimethylamino)(thiophen-2-yl)methyl)cyclohexyl)methyl)-2-(2-(1-(4-methoxy-2,3,6-trimethylphenylsulfonyl)piperidin-4-yl)ethoxy)acetamide]
inhibition at 1 µM (human μ opiate receptor): 86%
inhibition at 10 µM [1]: 91%

COc1ccc(S(=O)(=O)N2CCCCC2COCC(=O)NCC2CCC(C(c3ccc(F)cc3)N(C)C)CC2)cc1OC (single isomer, unassigned) [Example 534]
μ (binding on the μ opioid receptor, % inhibition) (human μ opiate receptor; 1 µM): 24%
5-HT (inhibition of reuptake of serotonin, % inhibition) ([1]; 10 µM): 88%

COc1cc(C)c(S(=O)(=O)N(CCOCC(=O)NCCC2CCC(C(c3ccc(F)cc3)N(C)C)CC2)Cc2ccccc2)c(C)c1 (stereo not shown) [Example 547]
μ (binding on the μ opioid receptor, % inhibition) (human μ opiate receptor): 30%
5-HT (inhibition of reuptake of serotonin, % inhibition) [1]: 90%

CN(C)C(c1cccs1)C1CCC(CCNC(=O)COC2CCCN(S(=O)(=O)c3ccccc3)C2)CC1 (stereo not shown) [Example 100, N-(2-(4-((dimethylamino)(thiophen-2-yl)methyl)cyclohexyl)ethyl)-2-(1-(phenylsulfonyl)piperidin-3-yloxy)acetamide]
inhibition at 1 µM (human μ opiate receptor): 94%
inhibition at 10 µM [1]: 97%

COc1cc(C)c(S(=O)(=O)N(CCOCC(=O)NCCC2CCC(C(c3ccc(Cl)cc3)N(C)C)CC2)Cc2ccccc2)c(C)c1C (stereo not shown) [Example 576]
μ (binding on the μ opioid receptor, % inhibition) (human μ opiate receptor): 15%
5-HT (inhibition of reuptake of serotonin, % inhibition) [1]: 73%

CN(C)C(c1ccccc1)C1CCC(CNC(=O)COC2CCN(S(=O)(=O)c3cccc(C(F)(F)F)c3)C2)CC1 (stereo not shown) [Example 113, N-((4-((dimethylamino)(phenyl)methyl)cyclohexyl)methyl)-2-(1-(3-(trifluoromethyl)phenylsulfonyl)pyrrolidin-3-yloxy)acetamide]
inhibition at 1 µM (human μ opiate receptor): 90%
inhibition at 10 µM [1]: 88%

CN(C)C(c1ccccc1)C1CCC(CNC(=O)COCCN(C)S(=O)(=O)c2ccc(F)cc2)CC1 (stereo not shown) [Example 112, N-((4-((dimethylamino)(phenyl)methyl)cyclohexyl)methyl)-2-(2-(4-fluoro-N-methylphenylsulfonamido)ethoxy)acetamide]
inhibition at 1 µM (human μ opiate receptor): 82%
inhibition at 10 µM [1]: 85%

COc1ccc(S(=O)(=O)N2CCC(OCC(=O)NCC3CCC(C(CCc4ccccc4)N(C)C)CC3)C2)cc1OC (stereo not shown) [Example 566]
μ (binding on the μ opioid receptor, % inhibition) (human μ opiate receptor): 19%
5-HT (inhibition of reuptake of serotonin, % inhibition) [1]: 87%

CN(C)C(c1cccs1)C1CCC(CNC(=O)COC2CCN(S(=O)(=O)c3ccc(F)cc3)C2)CC1 (stereo not shown) [Example 97, N-((4-((dimethylamino)(thiophen-2-yl)methyl)cyclohexyl)methyl)-2-(1-(4-fluorophenylsulfonyl)pyrrolidin-3-yloxy)acetamide]
inhibition at 1 µM (human μ opiate receptor): 92%
inhibition at 10 µM [1]: 91%

CN(C)C(c1cccs1)C1CCC(CNC(=O)COCC2CCCN(S(=O)(=O)c3ccccc3)C2)CC1 (stereo not shown) [Example 101, N-((4-((dimethylamino)(thiophen-2-yl)methyl)cyclohexyl)methyl)-2-((1-(phenylsulfonyl)piperidin-3-yl)methoxy)acetamide]
inhibition at 1 µM (human μ opiate receptor): 92%
inhibition at 10 µM [1]: 94%

COc1ccc(S(=O)(=O)N2CCCCC2COCC(=O)NCCC2CCC(C(c3cccs3)N(C)C)CC2)c(OC)c1 (stereo not shown) [Example 107, 2-((1-(2,4-dimethoxyphenylsulfonyl)piperidin-2-yl)methoxy)-N-(2-(4-((dimethylamino)(thiophen-2-yl)methyl)cyclohexyl)ethyl)acetamide]
inhibition at 1 µM (human μ opiate receptor): 92%
inhibition at 10 µM [1]: 90%

COc1cc(C)c(S(=O)(=O)N(C)CCOCC(=O)NC2CCC(C(c3cccs3)N(C)C)CC2)c(C)c1 (stereo not shown) [Example 111, N-(4-((dimethylamino)(thiophen-2-yl)methyl)cyclohexyl)-2-(2-(4-methoxy-N,2,6-trimethylphenylsulfonamido)ethoxy)acetamide]
inhibition at 1 µM (human μ opiate receptor): 92%
inhibition at 10 µM [1]: 85%

COc1ccc(S(=O)(=O)N2CCCCC2COCC(=O)NCC2CCC(C(CCc3ccccc3)N(C)C)CC2)c(OC)c1 (stereo not shown) [Example 420]
μ (binding on the μ opioid receptor, % inhibition) (human μ opiate receptor; 1 µM): 53%
5-HT (inhibition of reuptake of serotonin, % inhibition) ([1]; 10 µM): 74%

COc1ccc(S(=O)(=O)N2CCCC2COCC(=O)NCC2CCC(C(CCc3ccccc3)N(C)C)CC2)cc1 (stereo not shown) [Example 572]
μ (binding on the μ opioid receptor, % inhibition) (human μ opiate receptor): 29%
5-HT (inhibition of reuptake of serotonin, % inhibition) [1]: 93%

CN(C)C(CCc1ccccc1)C1CCC(CNC(=O)COC2CCN(S(=O)(=O)c3ccc(F)cc3)C2)CC1 (stereo not shown) [Example 574]
μ (binding on the μ opioid receptor, % inhibition) (human μ opiate receptor): 18%
5-HT (inhibition of reuptake of serotonin, % inhibition) [1]: 94%

CN(C)C(CCc1ccccc1)C1CCC(CNC(=O)COCC2CCCN(S(=O)(=O)c3ccccc3)C2)CC1 (stereo not shown) [Example 544]
μ (binding on the μ opioid receptor, % inhibition) (human μ opiate receptor): 24%
5-HT (inhibition of reuptake of serotonin, % inhibition) [1]: 92%

COc1ccc(S(=O)(=O)N2CCCCC2COCC(=O)NCC2CCC(C(c3cccs3)N(C)C)CC2)cc1OC (stereo not shown) [Example 133, 2-((1-(3,4-Dimethoxyphenylsulfonyl)piperidin-2-yl)methoxy)-N-((4-((dimethylamino)(thiophen-2-yl)methyl)cyclohexyl)methyl)acetamide]
inhibition at 1 µM (human μ opiate receptor): 89%
inhibition at 10 µM [1]: 88%

COc1cc(C)c(S(=O)(=O)N2CCC(OCC(=O)NCC3CCC(C(CCc4ccccc4)N(C)C)CC3)CC2)c(C)c1C (stereo not shown) [Example 546]
μ (binding on the μ opioid receptor, % inhibition) (human μ opiate receptor): 33%
5-HT (inhibition of reuptake of serotonin, % inhibition) [1]: 91%

COc1ccc(S(=O)(=O)N(C)CCOCC(=O)NCCC2CCC(C(c3cccs3)N(C)C)CC2)cc1 (stereo not shown) [Example 128, N-(2-(4-((dimethylamino)(thiophen-2-yl)methyl)cyclohexyl)ethyl)-2-(2-(4-methoxy-N-methylphenylsulfonamido)ethoxy)acetamide]
inhibition at 1 µM (human μ opiate receptor): 91%
inhibition at 10 µM [1]: 83%

COc1cc(C)c(S(=O)(=O)N(CCOCC(=O)NCC2CCC(C(c3ccc(Cl)cc3)N(C)C)CC2)Cc2ccccc2)c(C)c1C (stereo not shown) [Example 560]
μ (binding on the μ opioid receptor, % inhibition) (human μ opiate receptor): 22%
5-HT (inhibition of reuptake of serotonin, % inhibition) [1]: 47%

COc1cc(C)c(S(=O)(=O)N2CCC(OCC(=O)NCC3CCC(C(c4cccs4)N(C)C)CC3)CC2)c(C)c1C (stereo not shown) [Example 104, N-((4-((dimethylamino)(thiophen-2-yl)methyl)cyclohexyl)methyl)-2-(1-(4-methoxy-2,3,6-trimethylphenylsulfonyl)piperidin-4-yloxy)acetamide]
inhibition at 1 µM (human μ opiate receptor): 90%
inhibition at 10 µM [1]: 93%

CN(C)C(CCc1ccccc1)C1CCC(CNC(=O)COCCN(C)S(=O)(=O)c2cccc(C(F)(F)F)c2)CC1 (stereo not shown) [Example 556]
μ (binding on the μ opioid receptor, % inhibition) (human μ opiate receptor): 27%
5-HT (inhibition of reuptake of serotonin, % inhibition) [1]: 86%

COc1ccc(S(=O)(=O)N(C)CCOCC(=O)NC2CCC(C(c3ccc(F)cc3)N(C)C)CC2)cc1 (stereo not shown) [Example 549]
μ (binding on the μ opioid receptor, % inhibition) (human μ opiate receptor): 29%
5-HT (inhibition of reuptake of serotonin, % inhibition) [1]: 81%
